# Data taken from publication PMC3764026, “Adaptive Evolution of Escherichia coli to an α-Peptide/β-Peptoid Peptidomimetic Induces Stable Resistance” (PLoS ONE, 2013).
# Read-outs that look alike come from different tables or passages of the source.
# How the values were obtained:
# [1] = test system: isolates from peptidomimetic 1-exposed E. coli ATCC 25922 lineages; conditions: for MIC in MHB: standard MHB media
# Procedure: Continuous selection of resistance was performed for peptidomimetic 1 (Figure 1) and for the clinically relevant natural antimicrobial peptide, polymyxin B. A bacterial suspension of a single colony of E. coli ATCC 25922 was re-inoculated (10 µl) five times in unsupplemented MHB (990 µl). It was then re-inoculated in MHB supplemented with peptidomimetic 1 (ten lineages) or polymyxin B (ten lineages), and after ten re-inoculations at constant peptidomimetic or polymyxin B concentration, the concentrations were doubled. […] Four lineages grown in MHB with MilliQ water were included as control. Re-inoculations were performed twice a day, but were reduced to once a day when growth was slower as assessed by turbidity of the cultures. The total number of passages (supplemented with peptidomimetic/AMP) was 77 times equivalent to approx. 500 generations. For each increase in concentration the lineages were preserved as freezing stocks. Ten colony isolates were randomly selected from each lineage population at 32×MIC and preserved as freezing stocks.
# (§1) MIC was determined by using the micro-dilution method according to guidelines of the Clinical and Laboratory Standards Institute. Peptidomimetic 1 and erythromycin 1∶2 serial dilutions were prepared from 1024 µg/mL stock solutions to give a final range of 512-0.5 µg/mL in the wells. Ampicillin 1∶2 serial dilutions were prepared from a 256 µg/mL stock solution to give a final range of 128-0.13 µg/mL in the wells. Polymyxin B and gentamicin 1∶2 serial dilutions were prepared from a 64 µg/mL stock solution to give a final range of 32-0.03 µg/mL in the wells.
# (§2) The population lineages were tested for their susceptibility towards peptidomimetic 1, polymyxin B, gentamicin and ampicillin. Single-culture isolates selected from these populations were additionally tested against peptidomimetic 1, polymyxin B, erythromycin and the five reference AMPs. To estimate the level of cross-resistance to closely related peptidomimetics, MIC determinations were performed for peptidomimetics 2 and 3 (Figure 1) towards selected isolates. The bacterial suspensions were grown overnight in MHB at 37°C for determination of the population MIC, or individual isolates were grown overnight on non-selective BHI agar at 37°C. […] In all experiments, bacterial cells were suspended in 0.9% saline to give a turbidity of 0.13 at OD546 (approximately 1×10^8 CFU/mL) and diluted in MHB pH 7.4 to a final concentration of 5×10^5 CFU/mL in each well. Polypropylene plates (Nunc 442587) were used to minimize peptide binding, and the incubation time was 18–20 hours at 37°C. […] MIC was found in a minimum of two technical (population MIC) or biological (isolate MIC) replicates as the lowest concentration of the AMP or antibiotic where no visible growth was observed.
# E. coli ATCC 25922 [2] = conditions: wild-type E. coli ATCC 25922
# Procedure: as §1, §2
# (§3) Four isolates, i.e. 2-7, 4-4, 5-6 and 7-3, a representative isolate from four different lineages, were revived from freeze storage. The four isolates were grown in 25–50% blood plasma and in 25–50% heat-inactivated plasma as previously described. Blood plasma was obtained from two different blood donors using sodium citrate as anticoagulant and experiments were performed on at least two independent days. Both donors were fully informed about the study and purpose and a written consent has been received. […] For this the 1∶2 serial dilutions were made in MHB with 50% blood plasma added to give a final concentration of 25% plasma in the wells.
# [3] = test system: peptidomimetic-adapted E. coli isolates; conditions: for Potentiation (ability of plasma to interact synergistically with peptidomimetic 1): MHB vs MHB +25% plasma; for MIC in MHB +25% plasma: MHB with 25% human blood plasma (sodium citrate)
# Procedure: as §1, §2, §3
# [4] = test system: peptidomimetic-adapted E. coli isolates 2-7 and 7-3; assay: Growth rate in MHB supplemented with peptidomimetic 1, adapted isolates; assay type: cell-based, Escherichia coli
# Procedure: (§4) To evaluate whether resistance altered the physiology of the isolates, we determined the growth rate of all forty isolates from lineage 2, 4, 5 and 7 as well as of E. coli ATCC 25922 in unsupplemented MHB media. Additionally, we determined the growth rate of the four isolates 2-7, 4-4, 5-6 and 7-3, in MHB supplemented with peptidomimetic 1 at ½×wild type MIC or 1×wild type MIC (i.e. 4 and 8 µg/mL). […] Optical density readings were obtained at 570 nm at 10–12 minute increments on cultures grown at 37°C over 24 hours (unsupplemented MHB) or 72 hours (supplemented MHB) using the automated Bioscreen C system (Labsystems, Helsinki, Finland). Growth rates were found using linear regression on ln(initial CFU/mL) vs. detection time (i.e. the time until a 0.5 unit increase in absorbance was reached) for inoculum sizes ranging from 10^2–10^7 CFU/mL [58]. Data were analysed in GraphPad Prism version 4.03 using One-Way ANOVA followed by Dunnett’s Test to correct for multiple testing. Control groups were E. coli ATCC 25922 (in the absence of peptidomimetic) or E. coli ATCC 25922/isolates grown in unsupplemented media (in the presence of peptidomimetic). Significance levels were in all tests set at p<0.05. All experiments were performed in duplicate on at least two independent days.
# E. coli ATCC 25922 [5] = assay: Growth rate in MHB supplemented with peptidomimetic 1, wild type; assay type: cell-based, Escherichia coli; conditions: E. coli ATCC 25922 exposed to 1/16 or 1/32×wt MIC of peptidomimetic 1; p>0.05
# Procedure: as §4
structure (smiles),measurement,setting,value
CC(=O)N[C@@H](CCCCNC(=N)N)C(=O)N(CCC(=O)N[C@@H](CCCCNC(=N)N)C(=O)N(CCC(=O)N[C@@H](CCCCNC(=N)N)C(=O)N(CCC(=O)N[C@@H](CCCCNC(=N)N)C(=O)N(CCC(=O)N[C@@H](CCCCNC(=N)N)C(=O)N(CCC(=O)N[C@@H](CCCCNC(=N)N)C(=O)N(CCC(N)=O)[C@@H](C)c1ccccc1)[C@@H](C)c1ccccc1)[C@@H](C)c1ccccc1)[C@@H](C)c1ccccc1)[C@@H](C)c1ccccc1)[C@@H](C)c1ccccc1 [peptidomimetic 1],MIC of individual isolates,[1]; eight out of ten isolates from lineage no. 4,8 µg/mL
same,MIC of isolate,"[1]; isolate 2–3, first listed of three biological replicates",8 µg/mL
same,MIC of isolate,"[1]; isolate 2–3, second listed of three biological replicates",16 µg/mL
same,MIC of isolate,"[1]; isolate 2–3, third listed of three biological replicates",64 µg/mL
same,MIC in MHB,[1]; isolate 2–7 (lineage 2),64 to 128 µg/mL
same,MIC of isolate,"[1]; isolate 2–8, first listed of three biological replicates",16 µg/mL
same,MIC of isolate,"[1]; isolate 2–8, second listed of three biological replicates",64 µg/mL
same,MIC of isolate,"[1]; isolate 2–8, third listed of three biological replicates",128 µg/mL
same,MIC in MHB,[1]; isolate 4–4 (lineage 4),8 µg/mL
same,MIC in MHB,[1]; isolate 5–6 (lineage 5),32 to 64 µg/mL
same,MIC in MHB,[1]; isolate 7–3 (lineage 7),128 µg/mL
same,grouping of genome-sequenced isolates by MIC: high resistance,"[1]; isolates 2–4, 2–6, 2–7, 2–9, 2–10, 7–3, 7–4, 7–7, wt MIC value 8 µg/mL",High resistance isolates: 8–16 ×wt MIC
same,MIC,"[1]; isolates 2–4 and 2–6 (shared values), two biological replicates, mean when results varied",96 µg/mL
same,grouping of genome-sequenced isolates by MIC: low resistance,"[1]; isolates 4-1, 4-3, 5-6, 5-8, 5-9, wt MIC value 8 µg/mL",Low resistance isolates: 4–8 ×wt MIC
same,grouping of genome-sequenced isolates by MIC,"[1]; isolates 4–4, 4–6, 4–10, 5–2, 5–4, 7–9, 7–10, wt MIC value 8 µg/mL",Isolates with wt MIC
same,MIC of individual isolates,[1]; seven out of ten isolates from lineage no. 5,8 µg/mL
same,MIC lower as compared to that of the lineage population (256 µg/mL),[1]; the other two isolates from lineage no. 4,4 fold
same,"MIC of individual isolates, span","[1]; the ten isolates from lineage no. 2, biological replicates",8 to 128 µg/mL
same,"MIC of individual isolates, span",[1]; the ten isolates from lineage no. 7,8 to 128 µg/mL
same,Potentiation (ability of plasma to interact synergistically with peptidomimetic 1),E. coli ATCC 25922 [2]; MHB vs MHB +25% plasma,Weak
same,MIC in MHB +25% plasma,E. coli ATCC 25922 [2]; MHB with 25% human blood plasma (sodium citrate),2 µg/mL
same,Potentiation (ability of plasma to interact synergistically with peptidomimetic 1),[3]; isolate 2–7,Strong
same,MIC in MHB +25% plasma,[3]; isolate 2–7,0.25 to 2 µg/mL
same,Potentiation (ability of plasma to interact synergistically with peptidomimetic 1),[3]; isolate 4–4,Weak
same,MIC in MHB +25% plasma,[3]; isolate 4–4,1 to 4 µg/mL
same,Potentiation (ability of plasma to interact synergistically with peptidomimetic 1),[3]; isolate 5–6,Weak
same,MIC in MHB +25% plasma,[3]; isolate 5–6,4 to 8 µg/mL
same,Potentiation (ability of plasma to interact synergistically with peptidomimetic 1),[3]; isolate 7–3,Strong
same,MIC in MHB +25% plasma,[3]; isolate 7–3,1 to 2 µg/mL
same,growth rate,"[4]; isolate 2–7, MHB with 4 µg/mL peptidomimetic 1 (1/32×MIC), p<0.01 vs unsupplemented",significantly reduced growth rate
same,growth rate,"[4]; isolate 2–7, MHB with 8 µg/mL peptidomimetic 1 (1/16×isolate MIC), p<0.01 vs unsupplemented, Bioscreen C, 37°C, 72 h",significantly reduced
same,growth rate,"[4]; isolate 7-3, MHB with 8 µg/mL peptidomimetic 1 (1/16×isolate MIC), p<0.05 vs unsupplemented, Bioscreen C, 37°C, 72 h",significantly reduced
same,growth rate,E. coli ATCC 25922 [5],reduced growth rate was not seen
